Test systems include MDA-MB-231 breast; COLO 205 colon; HS 578T breast; NCI/ADR-RES ovarian; 786-0 renal; T-47D breast.
Holding throughout (test): NCI anticancer screen, dose series, 48 h

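Interpolation was linear, between the two tested concentrations surrounding the appropriate level; five concentrations were tested over 48 hours in 96-well plates. The concentration for 50% growth inhibition is given as GI50. TGI marks complete inhibition of growth.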

As for `COc1ccc(C(=O)Nc2ccc(O)c(=O)cc2)cc1`, the TGI in the assay on MDA-MB-231 breast is above 100 µM; in the assay on COLO 205 colon, 57 µM; in the assay on HS 578T breast, above 100 µM; in the assay on NCI/ADR-RES ovarian, above 100 µM; with 786-0 renal, above 100 µM.
Take `COc1cc(C(=O)N2CCN(C(=O)c3cc(OC)c(OC)c(OC)c3)C2=S)cc(OC)c1OC`: the GI50 was 16.7 µM in the assay on MDA-MB-231 breast; 13.1 µM in the assay with T-47D breast; 19.4 µM with COLO 205 colon; 24.7 µM in the assay with HS 578T breast; 26.8 µM with NCI/ADR-RES ovarian; 11.4 µM in the assay on 786-0 renal. Moreover, the TGI in the assay with MDA-MB-231 breast is 36 µM; in the assay with T-47D breast, 40.3 µM; in the assay with COLO 205 colon it was 40.4 µM; in the assay on HS 578T breast, above 100 µM; in the assay with NCI/ADR-RES ovarian, 74.5 µM; with 786-0 renal, 26.8 µM.
On to `Cc1cc(N[C@@H]2CCC[C@H](Nc3ccnc4cc(Cl)ccc34)C2)nc(N2CCCCCC2)n1`, for which the GI50 was 1.63 µM in the assay with MDA-MB-231 breast; 2.22 µM in the assay on T-47D breast; 1.36 µM in the assay on COLO 205 colon; 1.69 µM in the assay with NCI/ADR-RES ovarian; 1.47 µM in the assay on 786-0 renal. Moreover, the TGI with MDA-MB-231 breast was 3.43 µM; with T-47D breast it was 5.38 µM; in the assay with COLO 205 colon it was 2.89 µM; with NCI/ADR-RES ovarian it was 3.9 µM; with 786-0 renal, 2.9 µM.
Turning to `O=c1c(F)cn(Cc2ccc(C34CC5CC(CC(C5)C3)C4)c(O)c2)c(=O)n1Cc1ccc(C23CC4CC(CC(C4)C2)C3)c(O)c1`, the GI50 in the assay with MDA-MB-231 breast was 12.3 µM; with T-47D breast it was 20.8 µM; in the assay with COLO 205 colon it was 18 µM; in the assay with HS 578T breast it was 11.5 µM; in the assay with NCI/ADR-RES ovarian, 14.3 µM; in the assay on 786-0 renal, 11.8 µM. The TGI came to 24.8 µM with MDA-MB-231 breast; 51.6 µM in the assay on T-47D breast; 37.5 µM with COLO 205 colon; 56.4 µM in the assay with HS 578T breast; 28.9 µM with NCI/ADR-RES ovarian; 28.3 µM with 786-0 renal.
As for `Cc1nc(Nc2cccnc2)sc1C(=O)/C=C/c1ccc(F)cc1`, the GI50 is 4.03 µM in the assay on MDA-MB-231 breast; 2.25 µM in the assay on T-47D breast; 2.81 µM with COLO 205 colon; 4.05 µM in the assay on HS 578T breast; 3.24 µM in the assay on NCI/ADR-RES ovarian; 2.94 µM in the assay on 786-0 renal. In addition, the TGI in the assay on MDA-MB-231 breast is above 100 µM; with T-47D breast, above 100 µM; in the assay on COLO 205 colon it was 8.86 µM; with HS 578T breast, above 100 µM; with NCI/ADR-RES ovarian it was above 100 µM; with 786-0 renal, 19.4 µM.
With `C[C@@H]1C[C@@H]([C@@H](CC2CC(=O)NC(=O)C2)OC(=O)CC(=O)c2ccccc2)C(=O)[C@@H](C)C1`, the GI50 in the assay with MDA-MB-231 breast is 2.94 µM; in the assay with T-47D breast, 0.554 µM; in the assay with COLO 205 colon, 0.849 µM; in the assay with HS 578T breast it was 0.604 µM; in the assay with NCI/ADR-RES ovarian, 0.689 µM; in the assay with 786-0 renal, 0.293 µM. The TGI in the assay with MDA-MB-231 breast was 90.5 µM; with T-47D breast, above 29.4 µM; with COLO 205 colon it was above 100 µM; in the assay with HS 578T breast it was 10.9 µM; in the assay on NCI/ADR-RES ovarian it was above 100 µM; with 786-0 renal, 13.2 µM.
As to `O=C(/C=C/c1ccc[nH]1)c1ccc(-n2ccc(C(F)(F)F)n2)cc1`, the GI50 in the assay on MDA-MB-231 breast was above 100 µM; with T-47D breast it was above 40.9 µM; in the assay with COLO 205 colon, above 100 µM; with HS 578T breast, above 100 µM; with NCI/ADR-RES ovarian, above 100 µM; with 786-0 renal, 6.17 µM. The TGI in the assay on MDA-MB-231 breast, in the assay with T-47D breast, in the assay on COLO 205 colon, in the assay on HS 578T breast, in the assay on NCI/ADR-RES ovarian and in the assay on 786-0 renal was above 100 µM each time.
`NC(N)=N/N=C/c1c(Cl)cccc1Cl`: the GI50 was 14.7 µM in the assay with T-47D breast; 17.2 µM in the assay with COLO 205 colon; 18 µM in the assay on HS 578T breast; 28.9 µM in the assay on NCI/ADR-RES ovarian; 18 µM in the assay with 786-0 renal. Also, the TGI is 39.6 µM in the assay on T-47D breast; 32.1 µM in the assay on COLO 205 colon; 78 µM in the assay on HS 578T breast; above 100 µM with NCI/ADR-RES ovarian; 43.7 µM in the assay with 786-0 renal.
With `CCOC(=O)Nc1cc2c(c(N)n1)N=C(c1ccccc1)CO2`, the GI50 was 0.691 µM in the assay on MDA-MB-231 breast; 20.4 µM in the assay with T-47D breast; 0.102 µM with COLO 205 colon; 0.388 µM in the assay on HS 578T breast; 0.061 µM in the assay with NCI/ADR-RES ovarian; 1.21 µM in the assay on 786-0 renal. For the same molecule, the TGI in the assay on MDA-MB-231 breast is 6.43 µM; in the assay on T-47D breast it was 73.3 µM; in the assay on COLO 205 colon it was 0.885 µM; in the assay with HS 578T breast, above 69.4 µM; in the assay on NCI/ADR-RES ovarian it was 21.5 µM; in the assay with 786-0 renal, 20.9 µM.
Take `COC(=O)[C@]12CC[C@@H](C)[C@H](C)[C@@H]1C1=CC[C@@H]3[C@@]4(C)C[C@@H](O)[C@H](O)[C@@](C)(CO)C4=CC[C@@]3(C)[C@]1(C)CC2`: the GI50 was 16.3 µM in the assay on MDA-MB-231 breast; 12.3 µM in the assay with T-47D breast; 17.9 µM in the assay with COLO 205 colon; 17.9 µM with HS 578T breast; 16.6 µM in the assay on NCI/ADR-RES ovarian; 18.5 µM in the assay with 786-0 renal. Besides, the TGI in the assay on MDA-MB-231 breast came out at 34.4 µM; in the assay on T-47D breast it was 27.8 µM; in the assay on COLO 205 colon, 34.4 µM; with HS 578T breast it was 36.4 µM; in the assay with NCI/ADR-RES ovarian it was 33.9 µM; in the assay on 786-0 renal it was 34.5 µM.
Turning to `Clc1cc2c(c(CSc3nc4ccccc4n4cccc34)c1)OCOC2`, the GI50 in the assay with MDA-MB-231 breast is 12.7 µM; in the assay with T-47D breast, 0.596 µM; in the assay on COLO 205 colon, above 100 µM; with HS 578T breast, 5.61 µM; in the assay on NCI/ADR-RES ovarian, 61 µM; with 786-0 renal, 51.6 µM. Also, the TGI in the assay with MDA-MB-231 breast is above 100 µM; in the assay on T-47D breast, 9.33 µM; with COLO 205 colon, above 100 µM; in the assay with HS 578T breast it was 45 µM; in the assay on NCI/ADR-RES ovarian, above 100 µM; with 786-0 renal, above 100 µM.
Turning to `Nc1ncn([C@@H]2O[C@H](CO)[C@@H](O)[C@H]2O)c(=O)n1`, the GI50 was 1.61 µM with MDA-MB-231 breast, 1.21 µM in the assay with COLO 205 colon, 1.2 µM in the assay on NCI/ADR-RES ovarian and 0.687 µM in the assay with 786-0 renal. Besides, the TGI with MDA-MB-231 breast was above 100 µM; in the assay on COLO 205 colon, 3.02 µM; in the assay on NCI/ADR-RES ovarian, 10.6 µM; in the assay on 786-0 renal, 13.8 µM.
